How the values were obtained:
[1] = system: CAGA12 reporter (SMAD3 dependent) in SW1353 chondrocytic cells; experiment: CAGA12 firefly luciferase reporter assay; assay type: cell-based; details: 8 h peptide exposure, firefly normalized to Gaussia luciferase, relative to control (Figure 5B)
Protocol: Figure 5 Molecular characterization of peptides p[63−82] and p[113−132] (A) A pool of OA-HACs (n = 4 donors) was transfected with a scrambled siRNA or with an NKX3-2 siRNA (100 nM siRNA) and cultured for 24 h. Cultures were then exposed to peptide p[63−82] or p[113−132] (100 nM peptide). Samples were harvested 24 h later and analyzed for the expression of the indicated mRNAs (normalized to 28S rRNA). (B) SW1353 chondrocytic cells were transfected with BRE (SMAD1/5/8 reporter) or CAGA12 (SMAD2/3 reporter) firefly luciferase-reporter plasmids. A CMV-Gaussia plasmid was cotransfected as a transfection control. Cells were then cultured for 24 h and subsequently exposed to control, p[63−82], or p[113−132] for 8 h. Firefly and Gaussia bioluminescence were measured in cells and medium (respectively), and relative light units (RLUs) of firefly luciferase were normalized for the Gaussia luciferase signal. The normalized firefly luciferase signal of the control condition was set at 1, and peptide conditions were calculated relative to the control condition (FL/GL). Error bars represent mean ± SEM; statistical significance for peptide conditions versus siScrambled or siNKX3-2 (A) or control condition (B) as determined by unpaired two-tailed Student’s t test is represented as ∗p < 0.05, ∗∗p < 0.01, and ∗∗∗p < 0.001. […]

[2] = system: OA-HACs with NKX3-2 knockdown; experiment: NKX3-2 siRNA knockdown and peptide treatment, hypertrophy gene expression; assay type: cell-based, human; details: OA-HAC pool (n = 4 donors), then 100 nM peptide 24 h (Figure 5A); for chondrocyte hypertrophy-inhibiting bioactivity in control (scrambled siRNA) condition: 100 nM siRNA 24 h; for rescue of hypertrophy-inducing consequences of NKX3-2 knockdown: NKX3-2 siRNA 100 nM 24 h
Description: A chondrocyte phenotypic consequence of exposure to peptides p[63−82] or p[113−132] is an overall attenuation of hypertrophy. Previously, we[17]^,[27] and others[29]^,[30] recognized NKX3-2 (BAPX1) as an important negative regulator of chondrocyte hypertrophy, and the hypertrophy-inhibiting action of BMP7 on OA-HACs is, at least in part, mediated via NKX3-2.[27] Taking into consideration that the ability to induce NKX3-2 expression was one of the screening criteria for the identification of the here-described, BMP7-derived peptides (Figures 2 and S2), we next investigated whether NKX3-2 is involved in the bioactivity of peptides p[63−82] and p[113−132]. By means of small interfering (si)RNA transfection, NKX3-2 expression was reduced in a pool of OA-HACs. […] Treatment of control conditions (scrambled siRNA) with peptide p[63−82] or p[113−132]confirmed the peptides’ chondrocyte hypertrophy-inhibiting bioactivity (Figure 5A).
Figure 5 Molecular characterization of peptides p[63−82] and p[113−132] (A) A pool of OA-HACs (n = 4 donors) was transfected with a scrambled siRNA or with an NKX3-2 siRNA (100 nM siRNA) and cultured for 24 h. Cultures were then exposed to peptide p[63−82] or p[113−132] (100 nM peptide). Samples were harvested 24 h later and analyzed for the expression of the indicated mRNAs (normalized to 28S rRNA). (B) SW1353 chondrocytic cells were transfected with BRE (SMAD1/5/8 reporter) or CAGA12 (SMAD2/3 reporter) firefly luciferase-reporter plasmids. A CMV-Gaussia plasmid was cotransfected as a transfection control. Cells were then cultured for 24 h and subsequently exposed to control, p[63−82], or p[113−132] for 8 h. Firefly and Gaussia bioluminescence were measured in cells and medium (respectively), and relative light units (RLUs) of firefly luciferase were normalized for the Gaussia luciferase signal. The normalized firefly luciferase signal of the control condition was set at 1, and peptide conditions were calculated relative to the control condition (FL/GL). Error bars represent mean ± SEM; statistical significance for peptide conditions versus siScrambled or siNKX3-2 (A) or control condition (B) as determined by unpaired two-tailed Student’s t test is represented as ∗p < 0.05, ∗∗p < 0.01, and ∗∗∗p < 0.001. […] An alanine-scanning bioactivity score (sum of the fold change gene expression of COL10A1, ALPL, MMP13, and COL2A1 plus NKX3-2 of the alanine-substituted peptides versus the wild-type p[63−82] peptide) was calculated for each alanine substitution in the amino acid sequence of peptide p[63−82] and is represented by the height of each letter on the y axis (data in Figure S4). […]

| Substance | CAGA12-reporter activity [1] | chondrocyte hypertrophy-inhibiting bioactivity in control (scrambled siRNA) condition [2] | rescue of hypertrophy-inducing consequences of NKX3-2 knockdown [2] |
| --- | --- | --- | --- |
| H-AAYYSEGESAFPLNSYMNAT-OH [p[63−82]] | diminished | confirmed | did not show rescue |
| H-SVLYFDDSSNVILKKYRNMV-OH [p[113−132]] | diminished | confirmed | did not show rescue |

Reference: paper PMC8022858, “Discovery of bone morphogenetic protein 7-derived peptide sequences that attenuate the human osteoarthritic chondrocyte phenotype” (Molecular Therapy. Methods & Clinical Development, 2021)
